Data reported in patent US20250197394A1, “ANTIBACTERIALS BASED ON MONOCYCLIC FRAGMENTS COUPLED TO AMINOPIPERIDINE NAPHTHYRIDINE SCAFFOLD” (UNIVERZA V LJUBLJANI, priority 2019, published 2025).
Converted amounts (≈) assume the structure as drawn.

Experiments:
[1] = test system: methicillin-resistant Staphylococcus schleiferi subspecies coagulans; experiment: MIC broth microdilution, MRSS; type: cell-based; details: 20 hours of incubation
Protocol: (§1) Minimal inhibitory concentrations were determined by the broth microdilution method in 96-wells plate format following the Clinical and Laboratory Standards Institute (CLSI) guidelines given in “Methods for Dilution Antimicrobial Susceptibility Tests for Bacteria That Grow Aerobically, Approved Standard, 10th Edition, CLSI document M07-A10, Wayne, PA: Clinical and Laboratory Standards Institute, USA, 2015” and European Committee on Antimicrobial Susceptibility Testing (EUCAST) recommendations given in “The European Committee on Antimicrobial Susceptibility Testing, Breakpoint tables for interpretation of MICs and zone diameters, Version 5.0, 2015”. All exemplified compounds were tested on several Gram-positive (S. aureus, methicillin-resistant Staphylococcus aureus (MRSA), methicillin-resistant
(§2) Staphylococcus schleiferi subspecies coagulans, methicillin-resistant Staphylococcus pseudintermedius
(§3) (S-48, S-84, S-35, S-52, S-40 and S-51), Streptococcus agalactiae and Enterococcus faecalis) and Gram-negative bacteria (E. coli, Salmonella Alachua and Pseudomonas aeruginosa).
(§4) The MICs were visually determined as the lowest compound concentration inhibiting bacterial growth after 20 hours of incubation time. […] MIC values are represented in Table 2.

P. aeruginosa RDK 184 = experiment: MIC broth microdilution, P. aeruginosa; type: cell-based; details: Pseudomonas aeruginosa, RDK184, 20 hours of incubation
Protocol: as §1, §2, §3, §4

[2] = molecular target: T1, Escherichia coli DNA gyrase (Escherichia coli, UniProt P0AES4+P0AES6); experiment: Gyrase Supercoiling High Throughput Plate assay (E. coli); type: biochemical; details: mean of two to four independent measurements
T1 construct: purchased Inspiralis (Norwich, UK)
T1 sequence (P0AES4 whole entry, one chain of several): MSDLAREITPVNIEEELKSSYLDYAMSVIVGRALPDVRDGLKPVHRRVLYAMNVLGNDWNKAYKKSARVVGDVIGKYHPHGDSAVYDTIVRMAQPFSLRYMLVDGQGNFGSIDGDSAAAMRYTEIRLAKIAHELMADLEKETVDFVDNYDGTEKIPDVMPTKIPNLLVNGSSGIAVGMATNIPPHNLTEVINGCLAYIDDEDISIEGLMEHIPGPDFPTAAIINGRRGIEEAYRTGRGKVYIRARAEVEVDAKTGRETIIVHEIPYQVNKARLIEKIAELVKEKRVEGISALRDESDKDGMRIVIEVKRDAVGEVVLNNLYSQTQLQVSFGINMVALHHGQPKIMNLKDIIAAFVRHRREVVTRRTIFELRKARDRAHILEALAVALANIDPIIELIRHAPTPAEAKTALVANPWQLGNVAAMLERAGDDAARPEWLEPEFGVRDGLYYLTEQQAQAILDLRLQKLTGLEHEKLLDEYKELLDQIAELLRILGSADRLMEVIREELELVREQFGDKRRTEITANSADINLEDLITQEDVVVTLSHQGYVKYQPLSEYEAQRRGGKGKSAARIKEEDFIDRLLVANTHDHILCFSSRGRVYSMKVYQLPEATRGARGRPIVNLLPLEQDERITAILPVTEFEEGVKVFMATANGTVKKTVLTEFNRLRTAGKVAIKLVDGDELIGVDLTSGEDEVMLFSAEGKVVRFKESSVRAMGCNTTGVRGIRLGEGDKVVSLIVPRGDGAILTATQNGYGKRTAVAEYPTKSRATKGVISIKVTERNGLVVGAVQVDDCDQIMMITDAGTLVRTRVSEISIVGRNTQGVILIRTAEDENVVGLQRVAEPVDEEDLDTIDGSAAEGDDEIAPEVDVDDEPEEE

[3] = molecular target: Staphylococcus aureus DNA gyrase (Staphylococcus aureus, UniProt P0A0K8+P20831); experiment: biochemical
Sequence of Staphylococcus aureus DNA gyrase (P20831 whole entry): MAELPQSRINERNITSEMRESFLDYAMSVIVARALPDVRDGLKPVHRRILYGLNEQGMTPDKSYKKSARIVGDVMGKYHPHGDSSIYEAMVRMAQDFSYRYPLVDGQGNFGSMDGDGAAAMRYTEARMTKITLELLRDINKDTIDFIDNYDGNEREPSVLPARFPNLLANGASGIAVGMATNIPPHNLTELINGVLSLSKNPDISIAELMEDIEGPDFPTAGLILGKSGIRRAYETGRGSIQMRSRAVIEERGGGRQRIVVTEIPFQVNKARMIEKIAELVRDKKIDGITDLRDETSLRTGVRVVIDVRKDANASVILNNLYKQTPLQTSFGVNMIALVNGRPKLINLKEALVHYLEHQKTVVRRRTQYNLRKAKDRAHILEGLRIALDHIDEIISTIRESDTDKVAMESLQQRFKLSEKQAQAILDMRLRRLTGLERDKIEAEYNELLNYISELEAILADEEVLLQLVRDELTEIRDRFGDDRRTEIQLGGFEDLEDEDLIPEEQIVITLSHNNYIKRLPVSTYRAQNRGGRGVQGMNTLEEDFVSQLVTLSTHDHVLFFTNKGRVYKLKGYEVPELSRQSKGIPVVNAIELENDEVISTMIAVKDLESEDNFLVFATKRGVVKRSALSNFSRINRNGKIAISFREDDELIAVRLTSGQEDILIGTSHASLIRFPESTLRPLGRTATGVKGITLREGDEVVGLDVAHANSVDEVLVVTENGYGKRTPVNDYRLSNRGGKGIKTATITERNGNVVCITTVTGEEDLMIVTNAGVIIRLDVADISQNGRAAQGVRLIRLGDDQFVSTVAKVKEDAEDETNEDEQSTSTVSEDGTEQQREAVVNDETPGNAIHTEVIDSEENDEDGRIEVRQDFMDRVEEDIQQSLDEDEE
Sequence of Staphylococcus aureus DNA gyrase (P0A0K8 whole entry): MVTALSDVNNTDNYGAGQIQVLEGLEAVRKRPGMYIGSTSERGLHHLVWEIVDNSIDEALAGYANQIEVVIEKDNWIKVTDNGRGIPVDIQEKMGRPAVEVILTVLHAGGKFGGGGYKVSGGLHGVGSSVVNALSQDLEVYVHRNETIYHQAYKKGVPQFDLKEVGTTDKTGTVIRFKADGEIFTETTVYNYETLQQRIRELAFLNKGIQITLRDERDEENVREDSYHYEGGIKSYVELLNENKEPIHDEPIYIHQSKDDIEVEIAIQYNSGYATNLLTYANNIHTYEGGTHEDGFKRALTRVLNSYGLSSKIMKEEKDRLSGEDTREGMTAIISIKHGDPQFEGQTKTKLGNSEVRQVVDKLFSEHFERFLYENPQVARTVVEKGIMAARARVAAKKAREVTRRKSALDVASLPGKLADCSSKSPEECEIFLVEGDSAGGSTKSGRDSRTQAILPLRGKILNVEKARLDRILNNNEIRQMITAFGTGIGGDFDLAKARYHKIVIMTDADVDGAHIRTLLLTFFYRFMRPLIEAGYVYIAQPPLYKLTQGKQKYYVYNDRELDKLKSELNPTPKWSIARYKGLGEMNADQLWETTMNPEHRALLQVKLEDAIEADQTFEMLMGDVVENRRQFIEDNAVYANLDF

[4] = test system: methicillin-resistant Staphylococcus pseudintermedius S-40; experiment: MIC broth microdilution, MRSP S-40; type: cell-based; details: 20 hours of incubation
Protocol: as §1, §2, §3, §4

E. faecalis DRK 057 = experiment: MIC broth microdilution, E. faecalis; type: cell-based; details: Enterococcus faecalis, DRK057, 20 hours of incubation
Protocol: as §1, §2, §3, §4

[5] = test system: methicillin-resistant Staphylococcus pseudintermedius S-52; experiment: MIC broth microdilution, MRSP S-52; type: cell-based; details: 20 hours of incubation
Protocol: as §1, §2, §3, §4

C. jejuni RDK-135 = experiment: MIC broth microdilution, C. jejuni; type: cell-based; details: Campylobacter jejuni, RDK135, 20 hours of incubation
Protocol: as §1, §4

HepG2 (ATCC) cell line = experiment: Cytotoxicity, metabolic cell activity (CellTiter 96 AQueous One), HepG2; type: cell-based; details: two independent experiments; for mean percentage of metabolic activity of treated cells, HepG2 1 μM: HepG2, compound 1 μM; for mean percentage of metabolic activity of treated cells, HepG2 50 μM: HepG2, compound 50 μM
Protocol: (§5) Cytotoxicity was assessed in assay measuring metabolic cell activity performed on HepG2 (ATCC) and HUVEC (ATCC) cell lines according to the protocol of CellTiter 96® AQueous One Solution Cell Proliferation Assay 2018, Promega, USA, 2001. The method involved absorbance measurements after the treatment of cells with compounds at concentrations 1 μM and 50 μM.
(§6) The results are given as the mean percentage of metabolic activity of treated cells from two independent experiments and are represented in Table 3.

[6] = test system: methicillin-resistant Staphylococcus pseudintermedius S-51; experiment: MIC broth microdilution, MRSP S-51; type: cell-based; details: 20 hours of incubation
Protocol: as §1, §2, §3, §4

[7] = test system: methicillin-resistant Staphylococcus pseudintermedius S-35; experiment: MIC broth microdilution, MRSP S-35; type: cell-based; details: 20 hours of incubation
Protocol: as §1, §2, §3, §4

[8] = test system: methicillin-resistant Staphylococcus pseudintermedius S-48; experiment: MIC broth microdilution, MRSP S-48; type: cell-based; details: 20 hours of incubation
Protocol: as §1, §2, §3, §4

[9] = test system: methicillin-resistant Staphylococcus pseudintermedius S-84; experiment: MIC broth microdilution, MRSP S-84; type: cell-based; details: 20 hours of incubation
Protocol: as §1, §2, §3, §4

HUVEC (ATCC) cell line = experiment: Cytotoxicity, metabolic cell activity (CellTiter 96 AQueous One), HUVEC; type: cell-based; details: two independent experiments; for mean percentage of metabolic activity of treated cells, HUVEC 1 μM: compound 1 μM; for mean percentage of metabolic activity of treated cells, HUVEC 50 μM: compound 50 μM
Protocol: as §5, §6

[10] = test system: methicillin-resistant Staphylococcus aureus (MRSA); experiment: MIC broth microdilution, MRSA; type: cell-based; details: 20 hours of incubation
Protocol: as §1, §2, §3, §4

SMILES | MIC [1] [µg/mL] | MIC (P. aeruginosa RDK 184) [µg/mL] | IC50 [2] [nM] | IC50 [3] [nM] | MIC [4] [µg/mL] | MIC (E. faecalis DRK 057) [µg/mL] | MIC [5] [µg/mL] | MIC (C. jejuni RDK-135) [µg/mL] | mean percentage of metabolic activity of treated cells, HepG2 1 μM (HepG2 (ATCC) cell line) [%] | mean percentage of metabolic activity of treated cells, HepG2 50 μM (HepG2 (ATCC) cell line) [%] | MIC [6] [µg/mL] | MIC [7] [µg/mL] | MIC [8] [µg/mL] | MIC [9] [µg/mL] | mean percentage of metabolic activity of treated cells, HUVEC 1 μM (HUVEC (ATCC) cell line) [%] | mean percentage of metabolic activity of treated cells, HUVEC 50 μM (HUVEC (ATCC) cell line) [%] | MIC [10] [µg/mL]
COc1ccc2nccc(CCN3CCC(NCc4ccccc4)CC3)c2n1 [Compound C1, N-benzyl-1-(2-(6-methoxy-1,5-naphthyridin-4-yl)ethyl)piperidin-4-amine] | 0.25 (≈ 0.664 µM) | > 128 | 40600 | 1020 | 4 (≈ 10.6 µM) | 16 (≈ 42.5 µM) | 16 (≈ 42.5 µM) | 32 (≈ 85 µM) | 107.1 ± 7.2 | 1.4 ± 0.3 | 4 (≈ 10.6 µM) | 4 (≈ 10.6 µM) | 4 (≈ 10.6 µM) | 4 (≈ 10.6 µM) | 92.9 ± 16.6 | 63.4 ± 11.3 | 
COc1ccc2nccc(CCN3CCC(NCc4ccc(CO)cc4)CC3)c2n1 [Compound C2, (4-((1-(2-(6-methoxy-1,5-naphthyridin-4-yl)ethyl)piperidin-4-ylamino)methyl)phenyl)methanol] | 0.25 (≈ 0.615 µM) | > 128 | 56600 | 4390 | 4 (≈ 9.84 µM) | 8 (≈ 19.7 µM) | 8 (≈ 19.7 µM) | 32 (≈ 78.7 µM) | 100.2 ± 1.5 | 24.1 ± 0.9 | 4 (≈ 9.84 µM) | 4 (≈ 9.84 µM) | 4 (≈ 9.84 µM) | 4 (≈ 9.84 µM) | 97.7 ± 9.4 | 63.1 ± 2.1 | 
COc1ccc2nccc(CCN3CCC(NCc4ccc(C(N)=O)cc4)CC3)c2n1 [Compound C3, 4-((1-(2-(6-methoxy-1,5-naphthyridin-4-yl)ethyl)piperidin-4-ylamino)methyl) benzamide] | 0.25 (≈ 0.596 µM) | > 128 | > 100000 | 1820 | 4 (≈ 9.53 µM) | 128 (≈ 305 µM) | 8 (≈ 19.1 µM) | 128 (≈ 305 µM) | 94.0 ± 0.8 | 48.3 ± 1.0 | 4 (≈ 9.53 µM) | 4 (≈ 9.53 µM) | 4 (≈ 9.53 µM) | 4 (≈ 9.53 µM) | 105.8 ± 3.5 | 66.1 ± 3.5 | 
COc1ccc2nccc(CCN3CCC(NCc4ccc(N(C)C)cc4)CC3)c2n1 [Compound C4, N-(4-(dimethylamino)benzyl)-1-(2-(6-methoxy-1,5-naphthyridin-4-yl)ethyl)piperidin-4-amine] | 0.015 (≈ 0.0358 µM) | > 128 | 11900 | 67 | 0.125 (≈ 0.298 µM) | 1 (≈ 2.38 µM) | 0.5 (≈ 1.19 µM) | 4 (≈ 9.53 µM) | 102.5 ± 2.3 | 0.8 ± 1.0 | 0.25 (≈ 0.596 µM) | 0.25 (≈ 0.596 µM) | 0.25 (≈ 0.596 µM) | 0.125 (≈ 0.298 µM) | 105.9 ± 0.9 | 0.1 ± 0.6 | 0.025 (≈ 0.0596 µM)
COc1ccc2nccc(CCN3CCC(NCc4ccc(F)cc4)CC3)c2n1 [Compound C5, N-(4-fluorobenzyl)-1-(2-(6-methoxy-1,5-naphthyridin-4-yl)ethyl)piperidin-4-amine] | 0.125 (≈ 0.317 µM) | > 128 | 17000 | 550 | 2 (≈ 5.07 µM) | 8 (≈ 20.3 µM) | 8 (≈ 20.3 µM) | 1 (≈ 2.53 µM) | 98.0 ± 3.9 | −1.3 ± 2.2 | 2 (≈ 5.07 µM) | 2 (≈ 5.07 µM) | 2 (≈ 5.07 µM) | 2 (≈ 5.07 µM) | 105.2 ± 15.1 | 75.6 ± 12.0 | 
COc1ccc2nccc(CCN3CCC(NCc4ccc(Br)cc4)CC3)c2n1 [Compound C7, N-(4-bromobenzyl)-1-(2-(6-methoxy-1,5-naphthyridin-4-yl)ethyl)piperidin-4-amine] | ≤ 0.0078 | 128 (≈ 281 µM) |  | 7 | 0.031 (≈ 0.0681 µM) | 1 (≈ 2.2 µM) | 0.125 (≈ 0.274 µM) | 0.5 (≈ 1.1 µM) | 84.3 ± 8.9 | −0.1 ± 0.3 | 0.062 (≈ 0.136 µM) | 0.062 (≈ 0.136 µM) | 0.062 (≈ 0.136 µM) | 0.062 (≈ 0.136 µM) | 92.0 ± 4.5 | −0.5 ± 0.2 | 
COc1ccc2nccc(CCN3CCC(NCc4ccc(I)cc4)CC3)c2n1 [Compound C8, N-(4-iodobenzyl)-1-(2-(6-methoxy-1,5-naphthyridin-4-yl)ethyl)piperidin-4-amine] | 0.002 (≈ 0.00398 µM) | 32 (≈ 63.7 µM) |  | 11 | ≤ 0.0078 | 1 (≈ 1.99 µM) | 0.062 (≈ 0.123 µM) | 0.015 (≈ 0.0299 µM) | 102.6 ± 2.3 | 0.5 ± 0.3 | 0.0078 (≈ 0.0155 µM) | 0.15 (≈ 0.299 µM) | 0.015 (≈ 0.0299 µM) | 0.015 (≈ 0.0299 µM) | 108.0 ± 6.6 | −0.3 ± 0.5 | 0.015 (≈ 0.0299 µM)
COc1ccc2nccc(CCN3CCC(NCc4ccc(OC(F)F)c(OC)c4)CC3)c2n1 [Compound C9, N-(4-(difluoromethoxy)-3-methoxybenzyl)-1-(2-(6-methoxy-1,5-naphthyridin-4-yl)ethyl)piperidin-4-amine] | 0.125 (≈ 0.265 µM) | > 128 | 3900 | 350 | 2 (≈ 4.23 µM) | 16 (≈ 33.9 µM) | 4 (≈ 8.46 µM) | 2 (≈ 4.23 µM) | 89.7 ± 3.8 | −0.3 ± 2.1 | 2 (≈ 4.23 µM) | 2 (≈ 4.23 µM) | 2 (≈ 4.23 µM) | 2 (≈ 4.23 µM) | 89.6 ± 3.8 | 0.2 ± 1.0 | 
COc1ccc2nccc(CCN3CCC(NCc4ccc(OC(F)F)c(O)c4)CC3)c2n1 [Compound C10, 2-(difluoromethoxy)-5-((1-(2-(6-methoxy-1,5-naphthyridin-4-yl)ethyl)piperidin-4-ylamino)methyl)phenol] | 0.25 (≈ 0.545 µM) | > 128 | 4410 | 330 | 0.25 (≈ 0.545 µM) | 4 (≈ 8.72 µM) | 2 (≈ 4.36 µM) | 0.016 (≈ 0.0349 µM) | 100.5 ± 4.8 | −0.4 ± 1.6 | 0.25 (≈ 0.545 µM) | 0.5 (≈ 1.09 µM) | 0.25 (≈ 0.545 µM) | 0.25 (≈ 0.545 µM) | 96.4 ± 9.1 | 2.5 ± 0.3 | 
C=CCn1cc(CNC2CCN(CCc3ccnc4ccc(OC)nc34)CC2)cn1 [Compound C11, N-((1-allyl-^1H-pyrazol-4-yl)methyl)-1-(2-(6-methoxy-1,5-naphthyridin-4-yl)ethyl)piperidin-4-amine] | 0.125 (≈ 0.307 µM) | > 128 | 16700 | 1100 | 1 (≈ 2.46 µM) | 8 (≈ 19.7 µM) | 4 (≈ 9.84 µM) | 8 (≈ 19.7 µM) | 108.5 ± 6.3 | 77.0 ± 2.4 | 2 (≈ 4.92 µM) | 2 (≈ 4.92 µM) | 2 (≈ 4.92 µM) | < 1 | 88.6 ± 21.2 | 84.2 ± 19.5 | 2 (≈ 4.92 µM)
